The target of data set [1] is nicotinic receptors containing the α4β2 subunit (Rattus norvegicus, UniProt P09483+P12390). Kind of data set: Affinity for nicotinic receptors containing the α4β2 subunit, [3H]-cytisine binding to rat brain membranes. Conditions: read-out: Percentage of inhibition of the specific binding of [3H]-cytisine at a dose of 1 μM, for the α4β2 subunit. Here is the method:
The compounds of the invention were also studied as regards their affinity for nicotinic receptors containing the α4β2 subunit according to the methods described by Anderson and Arneric, Eur. J. Pharmacol (1994), 253, 261, and by Hall et al., Brain Res. (1993), 600, 127.
Male Sprague Dawley rats weighing 150 to 200 g are decapitated and the entire brain is removed quickly, homogenized in 15 volumes of 0.32 M sucrose solution at 4° C. and then centrifuged at 1000×g for 10 min. The pellet is discarded and the supernatant is centrifuged at 20 000×g for 20 min at 4° C. The pellet is recovered and homogenized using a Polytron™ mill in 15 volumes of double-distilled water at 4° C., followed by centrifugation at 8000×g for 20 min. The pellet is discarded and the supernatant and the buffy coat are centrifuged at 40 000×g for 20 min, the pellet is recovered, resuspended in 15 ml of double-distilled water and centrifuged again at 40 000×g, before being stored at −80° C.
On the day of the experiment, the tissue is thawed slowly and suspended in 3 volumes of buffer. 150 μl of this membrane suspension are incubated at 4° C. for 120 min in the presence of 100 μl of 1 nM [^3H]-cytisine in a final volume of 500 μl of buffer, in the presence or absence of test compound. The reaction is stopped by filtration on Whatman GF/B™ filters pretreated with polyethyleneimine, the filters are rinsed with 2×5 ml of buffer at 4° C. and the radioactivity retained on the filter is measured by liquid scintigraphy. The non-specific binding is determined in the presence of 10 μM (−)-nicotine; the non-specific binding represents […] of the total binding recovered on the filter. For each concentration of test compound, the percentage of inhibition of the specific binding of [^3H]-cytisine is determined, at doses of 1 μM and 10 μM. For the most affine compounds of the invention, the IC50 value is calculated, which is the concentration of compound that inhibits the specific binding by 50%.

In data set [2] the target is nicotinic receptors containing the α7 subunit (Rattus norvegicus, UniProt Q05941). Kind of data set: biochemical. In kind it is binding.
The mark [3] stands for this setting: compound at 1 μM, 1 nM [3H]-cytisine, rat brain membranes.

Structures are written as SMILES. Where a name gives a salt, the structure may show the parent alone. Read-outs that look alike come from different tables or passages of the source.

nicotinic receptors containing the α4β2 subunit, sequence (P09483 31-630): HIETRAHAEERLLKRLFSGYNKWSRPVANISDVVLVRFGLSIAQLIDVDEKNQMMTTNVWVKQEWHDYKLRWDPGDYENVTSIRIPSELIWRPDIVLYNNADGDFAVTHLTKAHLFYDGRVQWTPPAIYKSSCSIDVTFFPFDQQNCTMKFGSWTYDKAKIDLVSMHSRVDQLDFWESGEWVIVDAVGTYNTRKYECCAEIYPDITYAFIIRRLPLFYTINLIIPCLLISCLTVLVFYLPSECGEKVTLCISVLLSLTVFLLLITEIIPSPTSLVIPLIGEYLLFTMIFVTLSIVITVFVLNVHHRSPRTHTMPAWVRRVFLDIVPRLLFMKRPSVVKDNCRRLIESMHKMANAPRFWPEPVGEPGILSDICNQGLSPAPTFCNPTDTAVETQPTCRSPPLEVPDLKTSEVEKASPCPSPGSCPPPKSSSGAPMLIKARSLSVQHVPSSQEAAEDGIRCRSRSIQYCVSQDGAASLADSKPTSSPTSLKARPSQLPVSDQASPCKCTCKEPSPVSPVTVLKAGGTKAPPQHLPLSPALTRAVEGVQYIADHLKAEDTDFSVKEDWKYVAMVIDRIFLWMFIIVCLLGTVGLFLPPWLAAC
nicotinic receptors containing the α4β2 subunit, sequence (P12390 25-500): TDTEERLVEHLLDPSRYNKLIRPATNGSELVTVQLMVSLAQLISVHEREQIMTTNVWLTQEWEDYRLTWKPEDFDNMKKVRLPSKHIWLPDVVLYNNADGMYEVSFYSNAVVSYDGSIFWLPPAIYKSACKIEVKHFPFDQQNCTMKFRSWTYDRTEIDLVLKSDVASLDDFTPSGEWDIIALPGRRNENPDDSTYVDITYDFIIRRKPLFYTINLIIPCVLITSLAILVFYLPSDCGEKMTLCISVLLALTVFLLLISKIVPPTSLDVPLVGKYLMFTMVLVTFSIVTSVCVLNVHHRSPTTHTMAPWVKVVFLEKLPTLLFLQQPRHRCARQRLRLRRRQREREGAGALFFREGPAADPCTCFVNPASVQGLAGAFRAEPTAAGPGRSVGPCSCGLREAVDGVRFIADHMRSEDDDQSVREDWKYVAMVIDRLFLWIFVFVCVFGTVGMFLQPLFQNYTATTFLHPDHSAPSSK
nicotinic receptors containing the α7 subunit, sequence (Q05941 23-502): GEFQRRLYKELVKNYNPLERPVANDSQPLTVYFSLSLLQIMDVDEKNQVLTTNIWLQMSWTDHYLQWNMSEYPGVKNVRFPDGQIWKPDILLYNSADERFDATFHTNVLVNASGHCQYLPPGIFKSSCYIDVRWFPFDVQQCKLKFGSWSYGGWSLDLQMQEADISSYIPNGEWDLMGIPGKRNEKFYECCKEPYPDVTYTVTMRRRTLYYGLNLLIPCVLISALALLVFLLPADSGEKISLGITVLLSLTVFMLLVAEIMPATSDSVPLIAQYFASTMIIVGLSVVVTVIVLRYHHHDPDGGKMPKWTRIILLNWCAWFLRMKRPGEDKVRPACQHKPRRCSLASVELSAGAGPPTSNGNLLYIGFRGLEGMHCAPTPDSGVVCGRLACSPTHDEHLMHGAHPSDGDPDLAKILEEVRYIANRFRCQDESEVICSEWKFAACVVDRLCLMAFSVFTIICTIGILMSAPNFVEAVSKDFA

In the case of `Cn1cc(-c2ccc(C34CCCN(CC3)C4)cn2)cn1` (racemic), the melting point (as a rule, the temperature of the solid-liquid transition) lay in the range of 138 to 140 °C. As for `C1=CC2(c3ccc(-c4cscn4)nc3)CCN(C1)C2` (stereo not drawn) (as salt: HBr), the melting point was in the range of 272 to 274 °C. With `C1=CC2(c3ccc(-n4ccnc4)nc3)CCN(C1)C2` (single isomer, unassigned) [Compound 11], the inhibition (as a rule, how much of the control response was suppressed) at 1 µM in data set [1] worked out at 36%. Also, in data set [2] (read-out: IC50 α7), the IC50 (in general, the concentration at which inhibition is half-maximal) is 83 nM. On to `C1=CC2(c3ccc(-c4ncc[nH]4)nc3)CCN(C1)C2` (single isomer, unassigned) [Compound 14], for which the inhibition at 1 µM in data set [1] (setting [3]) was 45%. The compound also showed an IC50 in data set [2] of 99 nM. Take `CCCn1cc(-c2ccc(C34C=CCN(CC3)C4)cn2)cn1` (stereo not drawn) (as salt: HBr): the melting point is 190 to 192 °C.

`C1=CC2(c3ccc(-c4ncc[nH]4)nc3)CCN(C1)C2` (single isomer, unassigned) (as salt: HBr) [Compound 14] yielded a melting point of 234 to 236 °C.

Consider `C1=CC2(c3ccc(-c4cc[nH]n4)nc3)CCN(C1)C2` (stereo not drawn) (as salt: HBr), for which the melting point lay in the range of 273 to 275 °C. Same read-out and setting: under `CC(C)Cn1cc(-c2ccc(C34C=CCN(CC3)C4)cn2)cn1` (stereo not drawn) (as salt: HBr) stands 104 to 106 °C. With `C1=CC2(c3ccc(-c4c[nH]cn4)nc3)CCN(C1)C2` (single isomer, unassigned) [Compound 9], the inhibition at 1 µM in data set [1] (setting [3]) came out at 24%. Also, in data set [2], the midpoint of inhibition, the IC50, lay at 300 nM.

(Values after patent US8541440B2 (priority 2005, dated 2013).)
